{"source": "patent US20080063628A1", "about": "“METHODS TO PROMOTE CELL DIFFERENTIATION” (priority 2006, published 2008)", "test_system": "amniotic fluid-derived cell line AFCA009-A", "test": "Trichostatin A 24 h time course, gene expression by Real-Time PCR (Example 2)", "assay_type": "cell-based, human", "conditions": "1.25 μM", "method": "Amniotic fluid derived cells were seeded into 24-well tissue culture plates at a density of 5000/cm^2 and cultured in AMNIOMAX medium (Invitrogen) under standard cell culture conditions until confluent. Cells were obtained according to methods described in Example 14. After reaching confluence, 1.25 μM trichostatin A diluted in DMSO and medium was added to sample wells; an equivalent concentration of DMSO was added to control wells as a no treatment control.\nRNA samples were obtained from treated cultures at 30 minutes, 1.5 hours, 3 hours, 6 hours, 12 hours, and 24 hours following addition of trichostatin A or DMSO. Culture medium was removed, cells were washed with PBS, and RLT lysis buffer with β-mercaptoethanol (Qiagen) was added. RNA was purified using the RNeasy Mini Kit (Qiagen). RNA quantity and quality was determined using a spectrophotometer, and cDNA was made using the iScript cDNA synthesis kit (BioRad).\nExpression levels of Sox17, HNF-3 beta, Pdx-1, insulin, and glucagon were determined by Real-Time PCR. Samples of 20 ng cDNA were used in each reaction, performed on the Applied Biosystems 7500 according to methods described in Example 15. Data analysis was performed using the accompanying software. Human pancreas cDNA was included as a positive control, and results were normalized against GAPDH expression levels.\nReal-time PCR amplifcation and quantitative analysis. Unless otherwise stated, all reagents were purchased from Applied Biosystems. Real-time PCR reactions were performed using the ABI PRISM™ 7500 Sequence Detection System. TAQMAN™ FAST UNIVERSAL PCR MASTER MIX™ (ABI, CA) was used with 20 ng of reverse transcribed RNA in a total reaction volume of 20 μl. Each cDNA sample was run in duplicate to allow correction of pipetting errors. Primers and FAM-labeled TAQMAN™ probes were used at concentrations of 200 nM. The level of expression for each target gene was normalized using the pre-developed Applied Biosystem's human glyceraldehyde-3-phosphate dehydrogenase (GAPDH) endogenous control kit. Primers and probes were designed using either ABI PRISM PRIMER EXPRESS™ software or a pre-developed ABI gene analysis kit. For each gene, either one of the primers or the probe were designed to be exon-boundary spanning. This eliminated the possibility of the primers/probe binding to any genomic DNA present. The primer and probe sets are listed as follows: Pdx-1 (Hs00426216), Insulin (Hs00355773), glucagon (Hs00174967), and FoxA2 (HNF 3-beta) (Hs00232764). The remaining primers were designed using the PRIMERS program (ABI, CA). After an initial 95° C. incubation for 20 sec, samples were cycled 40 times in two stages: a denaturation step at 95° C. for 3 sec, followed by an annealing/extension step at 60° C. for 30 sec.\nFor each primer/probe set, a cycle time value was determined as the cycle number at which the fluorescence intensity of the PCR reaction reached a specific value in the middle of the exponential region of amplification. An increase in expression of a gene corresponded to a decrease in the number of cycles required for the fluorescence intensity to reach this value."}
{"smiles": "CC(/C=C/C(=O)NO)=C\\[C@@H](C)C(=O)c1ccc(N(C)C)cc1", "note": "[trichostatin A]", "values": [{"measurement": "HNF-3 beta gene expression", "setting": "0.5 h", "value": "+ (detectable between 35 and 40 cycles by RT-PCR)"}, {"measurement": "Insulin gene expression", "setting": "0.5 h", "value": "+ (detectable between 35 and 40 cycles by RT-PCR)"}, {"measurement": "PDX-1 gene expression", "setting": "0.5 h", "value": "nd (not detectable at >40 cycles by RT-PCR)"}, {"measurement": "Sox17 gene expression", "setting": "0.5 h", "value": "+++ (detectable at less than 35 cycles by RT-PCR with std error less than 0.9)"}, {"measurement": "glucagon gene expression", "setting": "0.5 h", "value": "nd (not detectable at >40 cycles by RT-PCR)"}, {"measurement": "HNF-3 beta RT-PCR detection cycle", "setting": "30 minutes", "value": "> 35", "unit": "cycles"}, {"measurement": "HNF-3 beta gene expression", "setting": "1.5 h", "value": "+ (detectable between 35 and 40 cycles by RT-PCR)"}, {"measurement": "Insulin gene expression", "setting": "1.5 h", "value": "+ (detectable between 35 and 40 cycles by RT-PCR)"}, {"measurement": "PDX-1 gene expression", "setting": "1.5 h", "value": "nd (not detectable at >40 cycles by RT-PCR)"}, {"measurement": "Sox17 gene expression", "setting": "1.5 h", "value": "+++ (detectable at less than 35 cycles by RT-PCR with std error less than 0.9)"}, {"measurement": "glucagon gene expression", "setting": "1.5 h", "value": "nd (not detectable at >40 cycles by RT-PCR)"}, {"measurement": "HNF-3 beta gene expression", "setting": "3 h", "value": "+++ (detectable at less than 35 cycles by RT-PCR with std error less than 0.9)"}, {"measurement": "Insulin gene expression", "setting": "3 h", "value": "+ (detectable between 35 and 40 cycles by RT-PCR)"}, {"measurement": "PDX-1 gene expression", "setting": "3 h", "value": "nd (not detectable at >40 cycles by RT-PCR)"}, {"measurement": "Sox17 gene expression", "setting": "3 h", "value": "+++ (detectable at less than 35 cycles by RT-PCR with std error less than 0.9)"}, {"measurement": "glucagon gene expression", "setting": "3 h", "value": "nd (not detectable at >40 cycles by RT-PCR)"}, {"measurement": "HNF-3 beta gene expression", "setting": "6 h", "value": "+++ (detectable at less than 35 cycles by RT-PCR with std error less than 0.9)"}, {"measurement": "Insulin gene expression", "setting": "6 h", "value": "nd (not detectable at >40 cycles by RT-PCR)"}, {"measurement": "PDX-1 gene expression", "setting": "6 h", "value": "+ (detectable between 35 and 40 cycles by RT-PCR)"}, {"measurement": "Sox17 gene expression", "setting": "6 h", "value": "+++ (detectable at less than 35 cycles by RT-PCR with std error less than 0.9)"}, {"measurement": "glucagon gene expression", "setting": "6 h", "value": "nd (not detectable at >40 cycles by RT-PCR)"}, {"measurement": "Pdx-1 RT-PCR detection cycle", "setting": "6 hours", "value": "> 35", "unit": "cycles"}, {"measurement": "HNF-3 beta gene expression", "setting": "12 h", "value": "+++ (detectable at less than 35 cycles by RT-PCR with std error less than 0.9)"}, {"measurement": "Insulin gene expression", "setting": "12 h", "value": "+ (detectable between 35 and 40 cycles by RT-PCR)"}, {"measurement": "PDX-1 gene expression", "setting": "12 h", "value": "+++ (detectable at less than 35 cycles by RT-PCR with std error less than 0.9)"}, {"measurement": "Sox17 gene expression", "setting": "12 h", "value": "+++ (detectable at less than 35 cycles by RT-PCR with std error less than 0.9)"}, {"measurement": "glucagon gene expression", "setting": "12 h", "value": "+ (detectable between 35 and 40 cycles by RT-PCR)"}, {"measurement": "glucagon RT-PCR detection cycle", "setting": "12 hours", "value": "> 35", "unit": "cycles"}, {"measurement": "HNF-3 beta gene expression", "setting": "24 h", "value": "+++ (detectable at less than 35 cycles by RT-PCR with std error less than 0.9)"}, {"measurement": "Insulin gene expression", "setting": "24 h", "value": "+ (detectable between 35 and 40 cycles by RT-PCR)"}, {"measurement": "PDX-1 gene expression", "setting": "24 h", "value": "+++ (detectable at less than 35 cycles by RT-PCR with std error less than 0.9)"}, {"measurement": "Sox17 gene expression", "setting": "24 h", "value": "+++ (detectable at less than 35 cycles by RT-PCR with std error less than 0.9)"}, {"measurement": "glucagon gene expression", "setting": "24 h", "value": "+++ (detectable at less than 35 cycles by RT-PCR with std error less than 0.9)"}, {"measurement": "HNF-3 beta RT-PCR detection cycle", "setting": "24 hours", "value": "< 35", "unit": "cycles"}, {"measurement": "Pdx-1 RT-PCR detection cycle", "setting": "24 hours", "value": "< 35", "unit": "cycles"}, {"measurement": "Pdx-1 gene expression relative to human pancreas", "setting": "24 hours", "value": "~0.1 % of human pancreas levels"}, {"measurement": "glucagon RT-PCR detection cycle", "setting": "24 hours", "value": "< 24", "unit": "cycles"}]}
